From a melting point compilation (Tetko et al.; mined from patent text by program, amines drawn as free bases though some values may be those of a salt)

Work on `c1ccc(COc2ccc3nc(-c4ccc(C56CC7CC(CC(C7)C5)C6)c(OCc5ccccc5)c4)[nH]c3c2)cc1` yielded a melting point of 203 °C.
Work on `CCN(CC)Cc1ccc2[nH]c(-c3ccccc3F)cc(=O)c2c1` yielded a melting point of 184 to 185 °C.
In the case of `NC(=O)c1cccc(C=CC(=O)O)c1`, the melting point is reported as greater than 260 °C.
Work on `Cc1nn(C(C)C)cc1C(=O)NC(C#N)c1cccs1` (configuration not stated) yielded a melting point of 140 to 142 °C.
`Fc1cc(CC2(Cc3ccncc3)c3ccccc3Oc3ncccc32)ccn1` (configuration not stated) showed a melting point of 206 to 208 °C.
In the case of `CCC1c2ccc(C#N)n2-c2cc(F)c(F)cc2N1S(=O)(=O)c1ccc(OC)c(C)c1` (configuration not stated), the melting point is reported as 153 to 155 °C.
For `O=C(O)COCN(c1ccc(CN2CCN(Cc3ccccc3)C(=O)C2=O)cc1)c1ncccn1`, the melting point was 85 to 90 °C.
`CCCCCCCCNC(=O)/C=C\SC(=O)c1cc(Cl)cc(Cl)c1` showed a melting point of 99 to 102 °C.
Work on `C[C@H](O)C(=O)Nc1c(C(=O)c2cc(CO)co2)[nH]c2cc(Cl)ccc12` yielded a melting point of 213 to 214 °C.
`c1ccc(NCC2CCCO2)cc1` (configuration not stated) gave a melting point of 149 to 156 °C.
`Nc1cc(=O)n(CC2CCCCC2)c(=S)n1CC1CCCCC1` gave a melting point of 147 to 150 °C.
With `Cc1cccnc1NC(=O)CN1C[C@@H](C)N(c2ncnc3sccc23)[C@@H](C)C1` the melting point was 157 to 159 °C.
For `CC(=O)c1ccc2c(c1)C=CC(=O)CO2`, the melting point was 92 to 93 °C.
For `CCCCCCC(=O)c1cn(CCCC(=O)O)c2ccccc12`, the melting point was 58 to 60 °C.
For `O=C(O)c1cn(-c2cccc(F)c2)c2cc(Cl)ccc2c1=O`, the melting point was 284 to 286 °C.
Work on `CCC1(CC)C(=O)N(C(C)(C)C)CC(C)(C)N1C(C)c1ccc(OC(C)=O)cc1` (configuration not stated) yielded a melting point of 92 to 96 °C.
With `CCN(C(=O)CN1C(=O)c2ccccc2C1=O)c1ccc(C)c(CO)c1C` the melting point was 205 to 207 °C.
With `O=C(CC1CC1)Nc1c(C(=O)c2ccccc2)[nH]c2cc(Cl)ccc12` the melting point was 72 to 75 °C.
Compound `CCCCOC(=O)CNC(=O)c1nc2ccc(Cl)cc2cc1OCc1ccccc1` has a melting point of 121 to 123 °C.
With `CCC(=O)O[C@@H]1[C@@H](c2ccccc2)Nc2c(ccn3c(C)c(C)nc23)[C@H]1OCCOC` the melting point was 106 to 107 °C.
`CC1(C)CCC(C)(C)c2cc(-c3cc(-c4ccc(C(=O)O)cc4)ccc3CC(O)CO)ccc21` (configuration not stated) showed a melting point of 145 °C.
Work on `CON(c1ccc(C#N)cc1Cl)S(=O)(=O)c1ccc(C)cc1` yielded a melting point of 145 to 147 °C.
With `Oc1ccc(-c2cc3c(Cl)c(O)ccc3o2)cc1` the melting point was 210 to 214 °C.
`O=C(NCCCCCCOC(=O)N1CCC(OC(=O)NC2CCCCC2)CC1)Oc1ccc(Oc2ccccc2)cc1` gave a melting point of 138 to 142 °C.
With `CCSc1ccc(NC(=S)NC(=O)OC)c(N)c1` the melting point was 168 °C.
Work on `ClCCCCCOc1ccc(C2=C(c3ccc(OC4CCCCO4)cc3)CCCc3cc(OC4CCCCO4)ccc32)cc1` (configuration not stated) yielded a melting point of 110 to 112 °C.
In the case of `COc1ccc(Cn2cnc3c(-c4ccco4)nc(C#C[Si](C)(C)C)nc32)cc1`, the melting point is reported as 155 to 157 °C.
In the case of `COC(=O)C1=C(C)NC(C)=C(C(=O)OCCN2CCN(C(c3ccc(Cl)cc3)c3ccc(Cl)cc3)CC2)C1c1cccc([N+](=O)[O-])c1` (configuration not stated), the melting point is reported as 83 to 87 °C.
`CCN(CC)S(=O)(=O)Oc1ccc2c(c1)CCC1C2CCC2(C)C(O)C(O)CC12` (configuration not stated) showed a melting point of 121 to 124 °C.
In the case of `O=C(OCc1ccccc1)N1CCc2c(sc3nc(CN4C(=O)CCC4=O)c(Cl)c(-c4ccc(OCc5ccccc5)cc4)c23)C1`, the melting point is reported as 238 to 239 °C.
`COC(=O)c1cc2nccnc2cc1N` showed a melting point of 180 to 182 °C.
For `CCOC(=O)C1=C(C=NOc2ccc([N+](=O)[O-])cc2[N+](=O)[O-])NC(CF)=C(C(=O)OCC)C1c1cccc([N+](=O)[O-])c1` (configuration not stated), the melting point was 150 to 152 °C.
`CCCCCCCCCCCCCCCCCC(=O)c1ccc(O)c(C(=O)OC(C)C)c1` gave a melting point of 72 to 73 °C.
For `N#Cc1ccc(Cn2c3cc(O)c(O)cc3c3ccc(O)c(O)c32)cc1`, the melting point was 225 to 227 °C.
Compound `CCC(C)(NC(=O)c1cc(Cl)c(N)c(C=NOC)c1)C(=O)CCl` (configuration not stated) has a melting point of 140 to 141 °C.
`CCCCc1ccc2c(c1)CC(C(=O)OCC)=NN2` gave a melting point of 150 to 152 °C.
In the case of `O=C(O)CCCN(C(=O)c1ccccc1O)C(c1ccccc1)c1ccccc1`, the melting point is reported as 162 to 163 °C.
For `O=C1OC(=O)c2c(Cl)cc(Cl)cc21`, the melting point was 90 to 94 °C.
`COC(=O)CS(=O)Cc1cccc(-c2nc(=O)c3ccccc3s2)n1` (configuration not stated) gave a melting point of 150 to 151 °C.
Compound `Cn1cccc1-c1ccc(C(F)(F)F)cc1` has a melting point of 39 to 40 °C.
In the case of `Oc1cc2c(cc1CCc1cccs1)OCC2`, the melting point is reported as 79 to 85 °C.
With `O=C(O)COc1cccc2c1CC(SCc1ccccc1)c1sc(-c3ccc4ccccc4c3)nc1-2` (configuration not stated) the melting point was 118 to 121 °C.
In the case of `O=[N+]([O-])C1(CNC(CO)(CO)CO)CCCCC1`, the melting point is reported as 110 to 113 °C.
`CCOCc1nc2c(N)nc3ccccc3c2n1CC(C)(C)O` gave a melting point of 190 to 193 °C.
For `COc1cc(COc2nn(-c3ccccc3)cc2/C=C/C(N)=S)ccc1OCc1nc(-c2ccco2)oc1C`, the melting point was 129 to 131 °C.
`O=C(O)c1ccc(NC(=O)C(c2ccc(Cl)cc2)c2ccc(Cl)cc2)cc1` showed a melting point of 272 to 274 °C.
In the case of `CON=C1CCCc2cc(OCCCOc3c(Cl)cc(OCC=C(Cl)Cl)cc3Cl)ccc21`, the melting point is reported as 75 to 77 °C.
For `Cc1c(Br)csc1C(=O)O`, the melting point was 188 to 189 °C.
In the case of `CC(C)CCN1C(=O)C2(COc3cc(O)c(C(=O)C(F)(F)F)cc32)c2ccccc21` (configuration not stated), the melting point is reported as 87 to 88 °C.
For `CCCCCCCc1[nH]c2cc(C(=O)OC)ccc2c1C=O`, the melting point was 177 to 180 °C.
In the case of `CCOC(=O)c1cc(OC)c(Cc2cnc(N)nc2N)c(OC)c1`, the melting point is reported as 201 to 202 °C.
For `O=c1c(Cc2ccccc2)cn(-c2ccc(F)cc2)c2ncccc12`, the melting point was 208 to 209 °C.
`CCCOc1ccc(/C=C/C(=O)O)cc1-c1nc2c(CCC)nn(C)c2c(=O)[nH]1` gave a melting point of 229 to 230 °C.
`Clc1ccc2cccc(-c3cccc4ccccc34)c2n1` showed a melting point of 133 to 135 °C.
For `COC(=O)C1C(=O)Nc2ccc(C(F)(F)F)cc2CC1c1ccc(OC)cc1` (configuration not stated), the melting point was 161 to 163 °C.
With `CC(C)Cn1c(CONS(C)(=O)=O)nc2c(N)nc3ccccc3c21` the melting point was 215 to 216 °C.
With `Cc1c(CCBr)c2cccc3c2n1CCS3` the melting point was 94 °C.
Work on `CC(C)c1ccc(C(=O)Cc2ccsc2)c(C(C)C)c1OS(N)(=O)=O` yielded a melting point of 136 to 138 °C.
In the case of `CC1(C)COc2ccc(C[C@H]3NC(=O)O[C@H]3c3cccc(Cl)c3)cc21` (racemic), the melting point is reported as 183 to 184 °C.
With `O=C(O)C(O)C(O)C(=O)NCc1ccc2c(c1)-c1n[nH]c(=O)c3cccc(c13)O2` (configuration not stated) the melting point was 181 to 185 °C.
In the case of `CC(C)CC(=O)Nc1cccc(-c2ccnc3c(-c4cccc(C(F)(F)F)c4)cnn23)c1`, the melting point is reported as 170 to 173 °C.
For `N=C(NCCCOc1cccc2[nH]c3ccccc3c12)c1cccs1`, the melting point was 189 to 190 °C.
In the case of `CC(=O)OCC1OC(OC(C)=O)C(N=[N+]=[N-])C(OC(C)=O)C1OC1OC(COC(C)=O)C(OC(C)=O)C(OC(C)=O)C1OC(C)=O` (configuration not stated), the melting point is reported as 77 to 78 °C.
In the case of `CC(C)(C)c1cc(Cl)cc(CO[C@H]2CCCN(Cc3nc(=O)[nH][nH]3)[C@H]2c2ccccc2)c1`, the melting point is reported as 181 to 182 °C.
Work on `CCOc1cc(N)c(Cl)cc1C(=O)NC1CCN(CC2CCN(C(=O)CCOC)CC2)CC1` yielded a melting point of 175 to 177 °C.
With `O=C(Nc1ccc(-c2ncc(-c3ccc(NC(=O)C4CCCCCC4)cc3)[nH]2)cc1)c1ccc(Cl)cc1` the melting point was 325 to 327 °C.
In the case of `N#Cc1ccc(CCn2ccn([C@H]3CCc4c(F)cc(F)cc4C3)c2=S)cc1`, the melting point is reported as 130 to 133 °C.
Compound `O=C1C=CC2(C=C1)N=C(N1CCN(Cc3cccc(C(F)(F)F)c3)CC1)C=C2c1ccccc1` has a melting point of 135 °C.
Compound `Cc1cc(O)c(SC(C)(C)C)c(=O)o1` has a melting point of 108 to 112 °C.
With `COC1=C(OC)C(=O)C2=C(CC(CCCCCCCCNC(C)=O)C2)C1=O` the melting point was 93 to 96 °C.
Work on `CC(C)c1cccc(C(C)C)c1NC(=O)N(Cc1ccccc1)CC1(c2ccccc2)CCCC1` yielded a melting point of 124 to 127 °C.
In the case of `c1ccc2c3c([nH]c2c1)CCS3`, the melting point is reported as 152 to 155 °C.
Work on `COC(=O)C(C)(C)c1ccc(Cl)c([N+](=O)[O-])c1` yielded a melting point of 160 to 161 °C.
Compound `O=C(c1ccccc1)c1ccc(OCc2nnn[nH]2)c(Cl)c1Cl` has a melting point of 184 to 186 °C.
Work on `CCC(CC(=O)OC)Sc1c(C(N)=O)sc2ccc(OC)cc12` (configuration not stated) yielded a melting point of 134 to 136 °C.
For `COc1ccc(-c2cc3ccccc3[nH]2)cc1NCc1ccc(O)c([N+](=O)[O-])c1`, the melting point was 165 to 166 °C.
In the case of `COc1ccc(C2C3=C(COC3=O)Nc3ccc4cc(C)[nH]c4c32)c(F)c1` (configuration not stated), the melting point is reported as 205 to 207 °C.
Work on `CCCN(c1cccc(-c2ccnc3c([N+](=O)[O-])cnn23)c1)S(=O)(=O)c1ccc(OC)cc1` yielded a melting point of 184 to 185 °C.
In the case of `CN(C)CCCNc1ncc2c(n1)-c1ccccc1C(c1ccc(Cl)c(Cl)c1)C2` (configuration not stated), the melting point is reported as 59 to 62 °C.
Work on `COc1ccc(C(=O)Cc2c(Cl)cncc2Cl)c2c1OC(C)(C)O2` yielded a melting point of 133 to 134 °C.
Compound `COc1cc(COc2cc(/C=C/C(=O)O)n(-c3ccccc3)n2)ccc1OCc1nc(-c2ccccc2)oc1C` has a melting point of 194 to 195 °C.
Work on `O=c1cc(O)c2ccc(F)cc2o1` yielded a melting point of 229 to 230 °C.
For `CCCCCCOC1=c2ccc3c(c2=C(c2ccc4c(c2)OCO4)C(C)(C(=O)OC)C1(C)C(=O)OC)OCO3` (configuration not stated), the melting point was 110 to 111 °C.
Compound `CNC(=O)[C@@H]1C[C@H](SCc2ccc(OC)cc2)CN1CCO` has a melting point of 88 to 89.5 °C.
In the case of `CCCCCCc1ccc(-n2c(-c3ccc(Br)cc3)ccc2-c2ccc(Br)cc2)cc1`, the melting point is reported as 198 to 199 °C.
With `CCCCCc1ccc(CCC2CCC(C#N)CC2)cc1` (configuration not stated) the melting point was 22.4 °C.
Work on `Cc1ccc(Nc2nc(-c3cc(-c4ccccc4)no3)cs2)nc1` yielded a melting point of 224 to 227 °C.
For `CCCCCCCCCCCCCCOc1ccc(CNC(C)=O)cc1`, the melting point was 100 to 101 °C.
`CCOC(=O)c1nc(-c2ccncc2)[nH]c1-c1ccc(C)cc1` gave a melting point of 182 to 185 °C.
In the case of `CC(=O)Oc1ccc(C=CC(=O)C=Cc2ccc(OC(C)=O)cc2)cc1`, the melting point is reported as 167 to 168 °C.
`O=C(Nc1ccccc1N1CCc2ccccc21)c1ccncc1` showed a melting point of 120 to 121 °C.
Work on `CC(C)c1nn(-c2ccc(C(F)(F)F)cn2)cc1CCCOc1cc(CCC(=O)O)n(C)n1` yielded a melting point of 131 to 132 °C.
For `Cc1ccc(C)n1Nc1nnc(N2CCOCC2)c2ccccc12`, the melting point was 255 to 260 °C.
`Cc1c(C)c(Br)c2ncccc2c1C` gave a melting point of 180 °C.
Compound `O=C(O)c1c(O)cccc1Cc1cccs1` has a melting point of 155 to 158 °C.
With `O=C1C(=O)N(C(c2ccccc2)c2ccccc2)c2c(Cl)cccc21` the melting point was 172 to 173 °C.
Compound `CCn1nc2c(N)nc3ccccc3c2c1CCCCO` has a melting point of 159 to 160 °C.
